Experimental data as given in ChEMBL document CHEMBL1201862, “PubChem BioAssay data set” (2004).
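Where inhibition never reached the appropriate level, the endpoint shown equals the highest concentration tested. Otherwise, values were interpolated linearly from a five-concentration, 48-hour dose response in 96-well plates. At the GI50, growth is halved.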 Active and inactive are the calls of the source. Cut-off read from the data, not from the text of the source: active = GI50 up to about 1.1 µM and inactive = higher.

Tests used:
Test in all cases: inhibition of tumour cell growth, NCI panel, 48 h
HOP-62 = system: HOP-62
HCT-15 = system: HCT-15
SF-295 = system: SF-295
KM12 = system: KM12
SNB-78 = system: SNB-78
OVCAR-3 = system: OVCAR-3
RPMI-8226 = system: RPMI-8226
MOLT-4 = system: MOLT-4
SNB-75 = system: SNB-75
SK-MEL-2 = system: SK-MEL-2
DMS-114 = system: DMS-114
UACC-62 = system: UACC-62
DMS-273 = system: DMS-273
RXF 393 = system: RXF 393
IGROV-1 = system: IGROV-1
LOX IMVI = system: LOX IMVI
M14 = system: M14
SK-MEL-5 = system: SK-MEL-5
UACC-257 = system: UACC-257
A549 = system: A549
KM-20L2 = system: KM-20L2
HCC 2998 = system: HCC 2998
ACHN = system: ACHN
UO-31 = system: UO-31
NCI-H226 = system: NCI-H226
SF-268 = system: SF-268
K562 = system: K562
COLO 205 = system: COLO 205
DLD-1 = system: DLD-1
U-251 = system: U-251
CAKI-1 = system: CAKI-1
TK-10 = system: TK-10
NCI-H23 = system: NCI-H23
SR = system: SR
SN12C = system: SN12C
SK-MEL-28 = system: SK-MEL-28
SK-OV-3 = system: SK-OV-3
EKVX = system: EKVX
LXFL 529 = system: LXFL 529
HL-60 = system: HL-60
HT-29 = system: HT-29
Malme-3M = system: Malme-3M
SW-620 = system: SW-620
NCI-H522 = system: NCI-H522
A498 = system: A498
SNB-19 = system: SNB-19
SF-539 = system: SF-539
NCI-H460 = system: NCI-H460
HCT-116 = system: HCT-116
OVCAR-4 = system: OVCAR-4
HOP-18 = system: HOP-18
786-0 = system: 786-0
OVCAR-5 = system: OVCAR-5
CCRF-CEM = system: CCRF-CEM
OVCAR-8 = system: OVCAR-8
HOP-92 = system: HOP-92
M19-MEL = system: M19-MEL
XF498 = system: XF498

Measured: GI50

C=C(c1ccccc1)C1(O)CCCCC1N (stereo not given)
inactive: HOP-62 > 100 µM | SF-295 > 100 µM | KM12 > 100 µM | SNB-78 > 100 µM | OVCAR-3 > 89.5 µM | RPMI-8226 50.7 µM | MOLT-4 31.8 µM | SNB-75 > 85.7 µM | SK-MEL-2 > 100 µM | DMS-114 > 100 µM | UACC-62 > 100 µM | DMS-273 > 100 µM | RXF 393 > 100 µM | IGROV-1 > 100 µM | LOX IMVI > 100 µM | M14 > 100 µM | SK-MEL-5 > 100 µM | UACC-257 > 100 µM | A549 > 100 µM | KM-20L2 > 100 µM | HCC 2998 > 100 µM | ACHN > 100 µM | UO-31 > 100 µM | NCI-H226 > 100 µM | SF-268 > 100 µM | K562 > 100 µM | COLO 205 > 100 µM | DLD-1 > 100 µM | U-251 > 100 µM | CAKI-1 > 43.2 µM | TK-10 > 100 µM | NCI-H23 > 100 µM | SR 30.3 µM | SN12C > 100 µM | SK-MEL-28 > 100 µM | SK-OV-3 > 100 µM | EKVX > 100 µM | LXFL 529 > 100 µM | HL-60 16.6 µM | HT-29 > 100 µM | Malme-3M > 100 µM | SW-620 > 100 µM | NCI-H522 > 100 µM | A498 > 100 µM | SNB-19 > 100 µM | SF-539 > 100 µM | NCI-H460 > 100 µM | HCT-116 > 100 µM | OVCAR-4 > 100 µM | HOP-18 > 100 µM | 786-0 > 100 µM | OVCAR-5 > 100 µM | CCRF-CEM 33.9 µM | OVCAR-8 > 100 µM | HOP-92 > 100 µM | M19-MEL > 100 µM
> 100 µM: HCT-15

CCOC(=O)c1oc2c(OC)cc(Cl)c3c2c1CCC3
inactive: SF-295 58.1 µM | KM12 > 100 µM | SNB-78 > 100 µM | OVCAR-3 13.6 µM | RPMI-8226 > 100 µM | MOLT-4 > 100 µM | SNB-75 26.2 µM | XF498 19.5 µM | SK-MEL-2 > 100 µM | DMS-114 > 100 µM | UACC-62 > 100 µM | DMS-273 92 µM | RXF 393 24.2 µM | IGROV-1 38.3 µM | LOX IMVI > 100 µM | M14 > 100 µM | SK-MEL-5 > 100 µM | UACC-257 > 100 µM | A549 59.8 µM | HCC 2998 > 100 µM | ACHN 30.3 µM | UO-31 28.6 µM | NCI-H226 12.2 µM | SF-268 > 100 µM | K562 > 100 µM | COLO 205 > 100 µM | DLD-1 > 100 µM | U-251 45 µM | TK-10 27.4 µM | NCI-H23 > 100 µM | SR > 100 µM | SN12C 64.7 µM | SK-MEL-28 58.3 µM | SK-OV-3 50.8 µM | EKVX > 100 µM | LXFL 529 > 100 µM | HL-60 > 100 µM | HT-29 > 100 µM | Malme-3M > 100 µM | SW-620 > 100 µM | NCI-H522 29.2 µM | A498 69.8 µM | SNB-19 31.5 µM | SF-539 > 100 µM | NCI-H460 > 100 µM | HCT-116 44.3 µM | OVCAR-4 38.6 µM | 786-0 30.8 µM | OVCAR-5 > 100 µM | CCRF-CEM > 100 µM | OVCAR-8 35.4 µM | HOP-92 20.7 µM | M19-MEL > 100 µM
> 100 µM: HCT-15

CCOC(C[C@H](O[Si](C)(C)C(C)(C)C)[C@H]1COC(=S)S1)OCC
inactive: HOP-62 43.6 µM | SF-295 37.7 µM | KM12 50.7 µM | OVCAR-3 59.4 µM | RPMI-8226 32.1 µM | MOLT-4 34.7 µM | XF498 27.2 µM | DMS-114 36.7 µM | DMS-273 30.1 µM | LOX IMVI 52.6 µM | M14 52.1 µM | SK-MEL-5 48.1 µM | UACC-257 35 µM | A549 70.5 µM | KM-20L2 41.4 µM | HCC 2998 > 100 µM | ACHN 48.5 µM | UO-31 35 µM | NCI-H226 85.1 µM | SF-268 > 100 µM | K562 41.3 µM | COLO 205 66.1 µM | U-251 40.7 µM | TK-10 > 100 µM | NCI-H23 53.5 µM | SR 41.7 µM | SN12C 55.8 µM | SK-MEL-28 > 100 µM | EKVX > 100 µM | LXFL 529 33.1 µM | HL-60 29 µM | HT-29 14.5 µM | Malme-3M > 100 µM | SW-620 62.7 µM | NCI-H522 23.3 µM | SNB-19 28.8 µM | SF-539 33.6 µM | NCI-H460 53.6 µM | HCT-116 39.2 µM | 786-0 > 100 µM | CCRF-CEM 34.9 µM | OVCAR-8 66.5 µM | M19-MEL 35.9 µM
55.1 µM: HCT-15
